Assay results taken from US12084419B2, “Cell metabolism modulating compounds and uses thereof” (CRESCENTA BIOSCIENCES, priority 2020, dated 2024).

Molecular target: T1, His6 tagged human recombinant FABP4 (Homo sapiens, UniProt P15090)
T1 construct: purchased Cayman Chemicals 10009549
Test: FABP4 TR-FRET assay: displacement of BODIPY FL C12 fatty acid
Conditions: triplicates, inhibition of BODIPY FL C12 binding; for inhibition at 1 µM: 1 μM compound; for inhibition at 10 µM: 10 μM compound
Outline: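 TR-FRET with a Tb anti-His6 antibody donor and BODIPY FL C12 as acceptor; compounds came from 0.362 and 0.0362 mM DMSO stocks. Protein (83 nM) and antibody (49.6 nM) solutions were premixed 30 min on ice in 25 mM Tris pH 7.4 with γ-globulins, NP-40 and DTT. Incubation was 10 min at room temperature; inhibition came from the 520/615 nm ratio.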

T1 sequence (P15090 whole entry): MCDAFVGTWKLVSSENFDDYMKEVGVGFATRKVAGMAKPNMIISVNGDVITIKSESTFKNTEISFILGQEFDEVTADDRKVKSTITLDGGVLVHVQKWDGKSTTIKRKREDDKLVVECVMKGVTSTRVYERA

Compound | inhibition at 1 µM [%] | inhibition at 10 µM [%]
CCCCC1CCCc2c(n(Cc3cccc(C#N)c3)c3c(C(=O)NCCO)cccc23)C1 (centres unmarked) [7-butyl-5-[(3-cyanophenyl)methyl]-N-(2-hydroxyethyl)-5H,6H,7H,8H,9H,10H-cyclohepta[b]indole-4-carboxamide] | 6.65 | 42.7
CCCCC1CCCc2c(n(Cc3cccc(F)c3)c3c(C(=O)O)cccc23)C1 (centres unmarked) [7-butyl-5-[(3-fluorophenyl)methyl]-5H,6H,7H,8H,9H,10H-cyclohepta[b]indole-4-carboxylic acid] | 97 | 90.6
CCCCC1CCCc2c(n(Cc3cccc(O)c3)c3c(C(=O)O)cccc23)C1 (centres unmarked) [7-butyl-5-[(3-hydroxyphenyl)methyl]-5H,6H,7H,8H,9H,10H-cyclohepta[b]indole-4-carboxylic acid] | 98.7 | 96.1
CCCCC1CCCc2c(n(Cc3cccc(OC)c3)c3c(C(=O)O)cccc23)C1 (centres unmarked) [7-butyl-5-[(3-methoxyphenyl)methyl]-5H,6H,7H,8H,9H,10H-cyclohepta[b]indole-4-carboxylic acid] | 91.7 | 86.5
CCCCC1CCCc2c(n(Cc3cccc(C)c3)c3c(C(=O)O)cccc23)C1 (centres unmarked) [7-butyl-5-[(3-methylphenyl)methyl]-5H,6H,7H,8H,9H,10H-cyclohepta[b]indole-4-carboxylic acid] | 94.8 | 91
CCCCC1CCCc2c(n(Cc3ccc(C(N)=O)cc3)c3c(C(=O)O)cccc23)C1 (centres unmarked) [7-butyl-5-[(4-carbamoylphenyl)methyl]-5H,6H,7H,8H,9H,10H-cyclohepta[b]indole-4-carboxylic acid] | 92.6 | 95.5
CCCCC1CCCc2c(n(Cc3ccc(C)cc3)c3c(C(=O)O)cccc23)C1 (centres unmarked) [7-butyl-5-[(4-methylphenyl)methyl]-5H,6H,7H,8H,9H,10H-cyclohepta[b]indole-4-carboxylic acid] | 106 | 92.4
CCCCC1CCCc2c(n(Cc3cccnc3)c3c(C(=O)O)cccc23)C1 (centres unmarked) [7-butyl-5-[(pyridin-3-yl)methyl]-5H,6H,7H,8H,9H,10H-cyclohepta[b]indole-4-carboxylic acid] | 71.6 | 83.8
CCCCCCC1CCCc2c(n(Cc3ccnc(OC)c3)c3c(C(=O)O)cccc23)C1 (centres unmarked) [7-hexyl-5-[(2-methoxypyridin-4-yl)methyl]-5H,6H,7H,8H,9H,10H-cyclohepta[b]indole-4-carboxylic acid] | 78.1 | 82.8
CCCCCCC1CCCc2c(n(Cc3ccccc3C)c3c(C(=O)O)cccc23)C1 (centres unmarked) [7-hexyl-5-[(2-methylphenyl)methyl]-5H,6H,7H,8H,9H,10H-cyclohepta[b]indole-4-carboxylic acid] | 92.7 | 84.2
CCCCCCC1CCCc2c(n(Cc3cccc(OC)c3)c3c(C(=O)O)cccc23)C1 (centres unmarked) [7-hexyl-5-[(3-methoxyphenyl)methyl]-5H,6H,7H,8H,9H,10H-cyclohepta[b]indole-4-carboxylic acid] |  | 93.6
CCCCCCC1CCCc2c(n(Cc3cccc(C)c3)c3c(C(=O)O)cccc23)C1 (centres unmarked) [7-hexyl-5-[(3-methylphenyl)methyl]-5H,6H,7H,8H,9H,10H-cyclohepta[b]indole-4-carboxylic acid] | 98.6 | 94.7
CCCCCCC1CCCc2c(n(Cc3ccc(C)cc3)c3c(C(=O)O)cccc23)C1 (centres unmarked) [7-hexyl-5-[(4-methylphenyl)methyl]-5H,6H,7H,8H,9H,10H-cyclohepta[b]indole-4-carboxylic acid] | 95.6 | 91.7
CCCCCCC1CCCc2c(n(Cc3cccnc3)c3c(C(=O)O)cccc23)C1 (centres unmarked) [7-hexyl-5-[(pyridin-3-yl)methyl]-5H,6H,7H,8H,9H,10H-cyclohepta[b]indole-4-carboxylic acid] | 105 | 97.3
CCCCCCC1CCCc2c(n(Cc3ccnc(C(F)(F)F)c3)c3c(C(=O)O)cccc23)C1 (centres unmarked) [7-hexyl-5-{[2-(trifluoromethyl)pyridin-4-yl]methyl}-5H,6H,7H,8H,9H,10H-cyclohepta[b]indole-4-carboxylic acid] | 87.6 | 94.7
CCCCCCC1CCCc2c(n(Cc3cccc(C(F)(F)F)n3)c3c(C(=O)O)cccc23)C1 (centres unmarked) [7-hexyl-5-{[6-(trifluoromethyl)pyridin-2-yl]methyl}-5H,6H,7H,8H,9H,10H-cyclohepta[b]indole-4-carboxylic acid] |  | 79.8
CCCCCCC1CCc2c(n(Cc3ccccc3C(N)=O)c3c(C(=O)O)cccc23)C1 (centres unmarked) [9-[(2-carbamoylphenyl)methyl]-2-hexyl-2,3,4,9-tetrahydro-1H-carbazole-8-carboxylic acid] | 31.1 | 80.7
CCCCCCC1CCc2c(n(Cc3ccccc3C#N)c3c(C(=O)O)cccc23)C1 (centres unmarked) [9-[(2-cyanophenyl)methyl]-2-hexyl-2,3,4,9-tetrahydro-1H-carbazole-8-carboxylic acid] | 87.3 | 92.7

Compound | inhibition at 1 µM [%] | inhibition at 10 µM [%]
CCCCCCC1CCc2c(n(Cc3ccccc3F)c3c(C(=O)O)cccc23)C1 (centres unmarked) [9-[(2-fluorophenyl)methyl]-2-hexyl-2,3,4,9-tetrahydro-1H-carbazole-8-carboxylic acid] | 81.8 | 84.9
CCCCCOC1CCCc2c1n(Cc1cccc(C(N)=O)c1)c1c(C(=O)O)cccc21 (centres unmarked) [9-[(3-carbamoylphenyl)methyl]-1-(pentyloxy)-2,3,4,9-tetrahydro-1H-carbazole-8-carboxylic acid] | 81.9 | 100
CCC1CCCc2c1n(Cc1cccc(C(N)=O)c1)c1c(C(=O)O)cccc21 (centres unmarked) [9-[(3-carbamoylphenyl)methyl]-1-ethyl-2,3,4,9-tetrahydro-1H-carbazole-8-carboxylic acid] | 90.3 | 95.9
CCCOC1CCCc2c1n(Cc1cccc(C(N)=O)c1)c1c(C(=O)O)cccc21 (centres unmarked) [9-[(3-carbamoylphenyl)methyl]-1-propoxy-2,3,4,9-tetrahydro-1H-carbazole-8-carboxylic acid] | 57.6 | 92
NC(=O)c1cccc(Cn2c3c(c4cccc(C(=O)O)c42)CCC(CCc2ccccc2)C3)c1 (centres unmarked) [9-[(3-carbamoylphenyl)methyl]-2-(2-phenylethyl)-2,3,4,9-tetrahydro-1H-carbazole-8-carboxylic acid] | 98.4 | 94.1
CCC1CCc2c(n(Cc3cccc(C(N)=O)c3)c3c(C(=O)O)cccc23)C1 (centres unmarked) [9-[(3-carbamoylphenyl)methyl]-2-ethyl-2,3,4,9-tetrahydro-1H-carbazole-8-carboxylic acid] | 85.5 | 101
CCCCCCC1CCc2c(n(Cc3cccc(C(N)=O)c3)c3c(C(=O)O)cccc23)C1 (centres unmarked) [9-[(3-carbamoylphenyl)methyl]-2-hexyl-2,3,4,9-tetrahydro-1H-carbazole-8-carboxylic acid] | 92.8 | 90.5
CCCCCC1CCc2c(n(Cc3cccc(C(N)=O)c3)c3c(C(=O)O)cccc23)C1 (centres unmarked) [9-[(3-carbamoylphenyl)methyl]-2-pentyl-2,3,4,9-tetrahydro-1H-carbazole-8-carboxylic acid] | 75 | 67
CCCC1CCc2c(n(Cc3cccc(C(N)=O)c3)c3c(C(=O)O)cccc23)C1 (centres unmarked) [9-[(3-carbamoylphenyl)methyl]-2-propyl-2,3,4,9-tetrahydro-1H-carbazole-8-carboxylic acid] | 83.6 | 88
CCC1CCc2c(c3cccc(C(=O)O)c3n2Cc2cccc(C(N)=O)c2)C1 (centres unmarked) [9-[(3-carbamoylphenyl)methyl]-3-ethyl-2,3,4,9-tetrahydro-1H-carbazole-8-carboxylic acid] | 98.2 | 103
CCCCCC1CCc2c(c3cccc(C(=O)O)c3n2Cc2cccc(C(N)=O)c2)C1 (centres unmarked) [9-[(3-carbamoylphenyl)methyl]-3-pentyl-2,3,4,9-tetrahydro-1H-carbazole-8-carboxylic acid] | 90.9 | 98.4
CCCC1CCc2c(c3cccc(C(=O)O)c3n2Cc2cccc(C(N)=O)c2)C1 (centres unmarked) [9-[(3-carbamoylphenyl)methyl]-3-propyl-2,3,4,9-tetrahydro-1H-carbazole-8-carboxylic acid] | 87.3 | 99.2
NC(=O)c1cccc(Cn2c3c(c4cccc(C(=O)O)c42)C(CCc2ccccc2)CCC3)c1 (centres unmarked) [9-[(3-carbamoylphenyl)methyl]-4-(2-phenylethyl)-2,3,4,9-tetrahydro-1H-carbazole-8-carboxylic acid] | 44.1 | 77.9
CCC1CCCc2c1c1cccc(C(=O)O)c1n2Cc1cccc(C(N)=O)c1 (centres unmarked) [9-[(3-carbamoylphenyl)methyl]-4-ethyl-2,3,4,9-tetrahydro-1H-carbazole-8-carboxylic acid] | 87 | 102
CCCCCC1CCCc2c1c1cccc(C(=O)O)c1n2Cc1cccc(C(N)=O)c1 (centres unmarked) [9-[(3-carbamoylphenyl)methyl]-4-pentyl-2,3,4,9-tetrahydro-1H-carbazole-8-carboxylic acid] | 42.6 | 84.4
CCCC1CCCc2c1c1cccc(C(=O)O)c1n2Cc1cccc(C(N)=O)c1 (centres unmarked) [9-[(3-carbamoylphenyl)methyl]-4-propyl-2,3,4,9-tetrahydro-1H-carbazole-8-carboxylic acid] | 53.9 | 90
CCC1CCCc2c1n(Cc1cccc(C(=O)O)c1)c1c(C(=O)O)cccc21 (centres unmarked) [9-[(3-carboxyphenyl)methyl]-1-ethyl-2,3,4,9-tetrahydro-1H-carbazole-8-carboxylic acid] | 39.6 | 78.5
